The text below walks through data of paper PMC10673369, “Preliminary SAR of Novel Pleuromutilin–Polyamine Conjugates” (Microorganisms, 2023).

Values after ≈ are worked out from the molar mass of the structure shown. Values joined by “and” are separate entries in the source; they are usually repeats but may differ in a detail not shown here. Equal entries are not always repeated.

One data set concerns S. aureus ATCC 25923. The data set is described as follows: MIC, broth dilution, S. aureus. It counts as cell-based. Conditions: Staphylococcus aureus, ATCC25923, mean (n = 3). The method, then:
(§1) The susceptibility of bacterial strains S. aureus (ATCC 25923), E. coli (ATCC 25922), and P. aeruginosa (ATCC 27853 or PAO1) to antibiotics and compounds was determined using reported protocols. Additional antimicrobial evaluation against MRSA (ATCC 43300), Klebsiella pneumoniae (ATCC 700603), A. baumannii (ATCC 19606), Candida albicans (ATCC 90028), and Cryptococcus neoformans (ATCC 208821) was undertaken at the Community for Open Antimicrobial Drug Discovery at The University of Queensland (Australia) according to their standard protocols as reported previously. […]
(§2) 2.3. Antimicrobial Assays
(§3) The susceptibility of bacterial strains S. aureus (ATCC 25923), E. coli (ATCC 25922), and P. aeruginosa (ATCC 27853 or PAO1) to antibiotics and compounds was determined in microplates using the standard broth dilution method in accordance with the recommendations of the Comité de l’AntibioGramme de la Société Française de Microbiologie (CA-SFM). Briefly, the minimal inhibitory concentrations (MICs) were determined with an inoculum of 10^5 CFU in 200 µL of Mueller–Hinton broth (MHB) containing two-fold serial dilutions of each drug. The MIC was defined as the lowest […]
(§4) determine all MICs, the measurements were independently repeated in triplicate. Additional antimicrobial evaluation against MRSA (ATCC 43300), Klebsiella pneumoniae (ATCC 700603), A. baumannii (ATCC 19606), Candida albicans (ATCC 90028), and Cryptococcus neoformans (ATCC 208821) was undertaken at the Community for Open Antimicrobial Drug Discovery at The University of Queensland (Australia) according to their standard protocols as reported previously. […]
(§5) For C. neoformans, resazurin was added at 0.006% final concentration to each well and incubated for a further 3 h before MICs were determined by measuring […]
(§6) Colistin and vancomycin were used as positive bacterial inhibitor standards for Gram-negative and Gram-positive bacteria, respectively. Fluconazole was used as a positive fungal inhibitor standard for C. albicans and C. neoformans. The antibiotics were provided in […], with 3 above and 3 below its MIC value, and plated into the first 8 wells of column 23 of the 384-well NBS plates. The quality control (QC) of the assays was determined by the antimicrobial controls and the Z'-factor (using positive and negative controls). Each plate was deemed to fulfil the quality criteria (pass QC) if the Z'- […]
(§7) inhibition at their highest concentration, and no growth inhibition at their lowest concentration.
(§8) 2.4. Determination of the MICs of Antibiotics in the Presence of Synergizing Compounds
In general terms: Dilution methods test growth across graded concentrations, often in twofold steps.

A further data set concerns Staphylococcus aureus. Also on record: method as in PMID 16589015, PMID 22070694, PMID 22191527. The conditions noted are these: cited from earlier work.
The test system of the next data set is Mycobacterium smegmatis. Details: method as in PMID 16589015, PMID 22070694, PMID 22191527. The conditions noted are these: cited from earlier work.
The test system of a further data set is Escherichia coli. Also on record: method as in PMID 16589015, PMID 22070694, PMID 22191527. The conditions noted are these: cited from earlier work.
Data set [1] has as its system P. aeruginosa PAO1. The data set is described as follows: MIC, broth dilution, P. aeruginosa PAO1. It counts as cell-based. Conditions: Pseudomonas aeruginosa, mean (n = 3). On the procedure: as §1, §2, §3, §4, §5, §6, §7, §8
The next data set deals with E. coli ATCC 25922. As to the kind of experiment: MIC, broth dilution, E. coli. It counts as cell-based, Escherichia coli. The conditions noted are these: Escherichia coli, ATCC25922, mean (n = 3). On the procedure: as §1, §2, §3, §4
In a further data set the test system is P. aeruginosa ATCC 27853. As to the kind of experiment: MIC of antibiotic alone, P. aeruginosa ATCC 27853. It counts as cell-based. The method, then: as §1, §2, §3, §5
The subject of data set [2] is C. neoformans ATCC 208821. The data set is described as follows: MIC, CO-ADD antifungal assay, C. neoformans. The conditions noted are these: Cryptococcus neoformans, ATCC208821, mean (n = 2). It counts as cell-based, Cryptococcus neoformans. The method, then:
as §1, §2
(§9) The susceptibility of bacterial strains S. aureus (ATCC 25923), E. coli (ATCC 25922), and P. […]
(§10) baumannii (ATCC 19606), Candida albicans (ATCC 90028), and Cryptococcus neoformans (ATCC 208821) was undertaken at the Community for Open Antimicrobial Drug Discovery at The University of Queensland (Australia) according to their standard protocols as reported previously. […]
(§11) For the antifungal assay, fungi strains were cultured for 3 days on YPD agar at 30 °C. A yeast suspension of 1 × 106 to 5 × 10^6 CFU/mL was prepared from five colonies. These stock suspensions were diluted with yeast nitrogen base (YNB) (Becton Dickinson, 233520) broth to a final concentration of 2.5 × 10^3 CFU/mL. The compounds were serially diluted 2-fold across the wells of 96-well plates (Corning 3641, non-binding surface), with compound concentrations ranging from 0.015 to 64 µg/mL and final volumes of 50 µL, plated in duplicate. Then, 50 µL of the fungi suspension that was previously prepared in YNB broth to the final concentration of 2.5 × 10^3 CFU/mL was added to each well of the compound-containing plates, giving a final compound concentration range of 0.008 to 32 µg/mL. Plates were covered and incubated at 35 °C for 36 h without shaking. C. albicans MICs were determined by measuring the absorbance at OD530. For C. neoformans, resazurin was added at 0.006% final concentration to each well and incubated for a further 3 h before MICs were determined by measuring […]
as §6, §7, §8

A further data set concerns C. albicans ATCC 90028. The data set is described as follows: MIC, CO-ADD antifungal assay, C. albicans. It counts as cell-based, Candida albicans. Conditions: Candida albicans, ATCC90028, mean (n = 2). The method, then:
as §1, §2, §9, §10, §11, §6, §7, §8

Data set [3] in a line: Cytotoxicity assay, HEK293. It counts as cell-based. The conditions noted are these: human; HEK293 cells; mean (n = 2); read-out: Cytotoxicity (IC50), concentration of compound at 50% cytotoxicity. On the procedure:
Cytotoxicity assays were conducted using reported protocols (see Supplementary File). […]
HEK293 cells were counted manually in a Neubauer hemocytometer and plated at a density of 5,000 cells/well into each well of the 384-well plates containing the 25x (2 µL) concentrated compounds [26,27]. The medium used was Dulbecco's modified Eagle’s medium (DMEM), supplemented with 10% fetal bovine serum (FBS). Cells were incubated together with the compounds for 20 h at 37 °C, 5% CO2.
(§12) To measure cytotoxicity, 5 µL (equals 100 µM final) of resazurin was added to each well after incubation and incubated for further 3 h at 37 °C with 5% CO2. After the final incubation, fluorescence intensity […]
reader. CC50 values (concentration at 50% cytotoxicity) were calculated by normalizing the fluorescence readout, with 74 µg/mL tamoxifen as negative control (0%) and normal cell growth as positive control (100%). The concentration-dependent percentage cytotoxicity was fitted to a dose–response function (using Pipeline Pilot) and CC50 values were determined. […]

The test system of a further data set is MRSA ATCC 43300. As to the kind of experiment: MIC, CO-ADD broth microdilution, MRSA. It counts as cell-based, methicillin-resistant S. aureus. Conditions: Staphylococcus aureus, read-out: MIC MRSA. On the procedure: as §1, §2, §9
baumannii (ATCC 19606), Candida albicans (ATCC 90028), and Cryptococcus neoformans (ATCC 208821) was undertaken at the Community for Open Antimicrobial Drug Discovery at The University of Queensland (Australia) according to their standard protocols as reported previously. For antimicrobial assays, the tested strains were cultured in either Luria broth (LB) (In Vitro Technologies, USB75852), nutrient broth (NB) (Becton Dickson, 234000), or MHB at 37 °C overnight. A sample of culture was then diluted 40-fold in fresh MHB and incubated at 37 °C for 1.5−2 h. The compounds were serially diluted 2-fold across the wells of 96-well plates (Corning 3641, non-binding surface), with compound concentrations ranging from 0.015 to 64 µg/ mL, and plated in duplicate. The resultant mid-log phase cultures were diluted to the final concentration of 1 × 10^6 CFU/mL; then, 50 µL was added to each well of the compound-containing plates, giving a final compound concentration range of 0.008 to 32 µg/mL and a cell density of 5 × 10^5 CFU/mL. All plates were then covered and incubated at 37 °C for 18 h. Resazurin was added at 0.001% final concentration to each well and incubated for 2 h before MICs […]
as §5, §6, §7, §8

Details of data set [4]: method as in PMID 22070694, PMID 31480231. Conditions: phase I clinical trials; cited from earlier work.
Data set [5] relates to P. aeruginosa PAO1. As to the kind of experiment: Nitrocefin hydrolysis assay (outer membrane permeabilization). It counts as cell-based. The conditions noted are these: polymyxin B at 98.3 μM ([…]). The method, then: Nitrocefin assays were conducted using reported protocols (see Supplementary File).
We also examined the ability of 9e to act as membrane disruptor of the Gram-negative bacteria P. aeruginosa PAO1 (Figure 5), using a nitrocefin colorimetric assay. This assay makes use of a chromogenic cephalosporin derivative, which in the presence of an outer membrane disruptor gains entry to the periplasm, where upon the action of β-lactamases leads to substrate hydrolysis with a detectable color change from yellow to red.
Briefly, restoring enhancer concentrations were determined with an inoculum of 5x10^5 CFU in 200 µL of MHB containing two-fold serial dilutions of each derivative in the presence of doxycycline at 4.5 […]
The lowest concentration of the polyamine
These measurements were independently repeated in triplicate.
Outer membrane permeabilization was measured using nitrocefin as a chromogenic substrate of periplasmic β-lactamase. […] Nitrocefin hydrolysis was monitored spectrophotometrically by measuring the increase in absorbance at 490 nm. […]
HEK293 cells were counted manually in a Neubauer hemocytometer and plated at a density of 5,000 cells/well into each well of the 384-well plates containing the 25x (2 µL) concentrated compounds [26,27]. […]
as §12
reader. […] The concentration-dependent percentage cytotoxicity was fitted to a dose–response function (using Pipeline Pilot) and CC50 values were determined.
Human whole blood was washed three times with three volumes of 0.9% NaCl and then resuspended in the same solution to a concentration of 0.5 x 10^8 cells/mL, as determined by the manual cell count in a Neubauer hemocytometer. […] Hemolysis was determined by measuring the supernatant absorbance at […] (OD405). The absorbance was measured using a Tecan M1000 Pro monochromator plate reader. […]

`C=C[C@]1(C)C[C@@H](OC(=O)CO)[C@]2(C)[C@H](C)CC[C@]3(CCC(=O)[C@H]32)[C@@H](C)[C@@H]1O` [Compound 1, pleuromutilin]: the minimal inhibitory concentration (MIC) in the data set with S. aureus ATCC 25923 stood at 3.12 µM; with P. aeruginosa PAO1 [1], 800 µM; against E. coli ATCC 25922, 400 µM (≈ 151 µg/mL). Besides, the “Antibacterial activity against Staphylococcus aureus” value with Staphylococcus aureus is listed as “bactericidal activity”. Besides, in the data set with Mycobacterium smegmatis, the “Antibacterial activity against Mycobacterium smegmatis” value was “moderate activity”. For the same molecule, the “Antibacterial activity against Escherichia coli” value in the data set on Escherichia coli is “no effect”.

As to `O=C(N[C@H](CO)[C@H](O)c1ccc([N+](=O)[O-])cc1)C(Cl)Cl` [chloramphenicol, reference compound], in the data set with S. aureus ATCC 25923, the MIC was in the range of 1.5 to 3 µM.

On to `C[C@H]1c2cccc(O)c2C(=O)C2=C(O)[C@]3(O)C(=O)C(C(N)=O)=C(O)[C@@H](N(C)C)[C@@H]3[C@@H](O)[C@@H]21` [doxycycline], for which the “MIC of antibiotic alone” value with P. aeruginosa ATCC 27853 is 90 μM and 40 μg/mL.

For `OC(Cn1cncn1)(Cn1cncn1)c1ccc(F)cc1F` [fluconazole, reference compound], the results for the MIC (in [2]; in the data set on C. albicans ATCC 90028) were 26 µM and 0.4 µM, respectively.

Take `[H]/N=C(/N)N[C@H]1[C@H](O)[C@@H](O)[C@H](O[C@@H]2O[C@@H](C)[C@](O)(C=O)[C@H]2O[C@@H]2O[C@@H](CO)[C@H](O)[C@@H](O)[C@@H]2NC)[C@@H](N/C(N)=N\[H])[C@@H]1O` [streptomycin, reference compound]: the MIC in the data set with S. aureus ATCC 25923 was 21.5 µM; with P. aeruginosa PAO1 [1] it was 21.5 µM; against E. coli ATCC 25922, 21.5 µM (≈ 12.5 µg/mL).

Consider `CC/C(=C(\c1ccccc1)c1ccc(OCCN(C)C)cc1)c1ccccc1` [tamoxifen, reference compound], for which the IC50 at 20 h in [3] was 24 µM.

Take `CN[C@H](CC(C)C)C(=O)N[C@H]1C(=O)N[C@@H](CC(N)=O)C(=O)N[C@H]2C(=O)N[C@H]3C(=O)N[C@H](C(=O)N[C@H](C(=O)O)c4cc(O)cc(O)c4-c4cc3ccc4O)[C@H](O)c3ccc(c(Cl)c3)Oc3cc2cc(c3O[C@@H]2O[C@H](CO)[C@@H](O)[C@H](O)[C@H]2O[C@H]2C[C@](C)(N)[C@H](O)[C@H](C)O2)Oc2ccc(cc2Cl)[C@H]1O` [vancomycin, reference compound]: the MIC with MRSA ATCC 43300 stood at 0.7 µM.

With azamulin [Compound 4], the Bioavailability entry in data set [4] was “poor bioavailability”.

For polymyxin B, in the data set with P. aeruginosa PAO1 [5], the “Outer membrane perturbation (nitrocefin hydrolysis)” value is “potent ability to perturb the outer membrane”.

The MIC is the lowest concentration that inhibits growth of the organism.
